The record followed here is BindingDB's records for patent US20230357253 (The Scripps Research Institute, 2023).

The assay deals with Stimulator of interferon genes protein (Homo sapiens, UniProt Q86WV6). Description: WT STING Binding Assay. The method, then:
Upon proximity of the two dyes, the excitation of the donor by the flash lamp on the PHERAstar FSX plate reader triggers a Fluorescence Resonance Energy Transfer (FRET) towards the acceptor, which in turn fluoresces at 665 nm. To assess the ability of the synthetic small molecule STING ligands to bind to human STING, a competitive assay format was applied. A 10-point titration of each of the synthetic ligands in 5 uL were transferred into a 384 well plate, followed by 20 uL of assay buffer containing the 6×His-tagged human STING protein and labeled 2′3′cGAMP ligand and incubated for three hours at room temperature. The raw values obtained from the PHERAstar were used to calculate the reported IC50 values (the signal is inversely proportional to the binding of the synthetic ligand) through curve fitting in Genedata. The percent inhibition was calculated based upon the maximal amount of binding by synthetic compound versus the maximum binding of unlabeled 2′3′ cGAMP which was used as a control in each assay.

Chain of Stimulator of interferon genes protein (Q86WV6 whole entry): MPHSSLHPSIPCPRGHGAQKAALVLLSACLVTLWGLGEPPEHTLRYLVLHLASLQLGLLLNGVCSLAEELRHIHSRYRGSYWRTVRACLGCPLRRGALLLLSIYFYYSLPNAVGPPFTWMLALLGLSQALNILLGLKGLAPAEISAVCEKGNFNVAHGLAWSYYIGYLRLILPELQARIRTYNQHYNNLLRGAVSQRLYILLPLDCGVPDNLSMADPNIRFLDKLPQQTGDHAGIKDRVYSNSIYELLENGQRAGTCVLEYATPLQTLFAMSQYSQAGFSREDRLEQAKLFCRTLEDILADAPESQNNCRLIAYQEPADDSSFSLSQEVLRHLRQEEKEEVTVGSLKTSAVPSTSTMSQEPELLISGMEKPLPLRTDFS

The IC50 is the concentration that gives 50% inhibition. A lower IC50 goes with greater potency. For the compound `O=C(Nc1cc(CCCc2cc(NC(=O)c3ccc(-n4ccnc4)nn3)c(C(=O)O)cc2F)c(F)cc1C(=O)O)c1ccc(N2CCNCC2)nn1` [US20230357253, Compound 214], the IC50 was over 1000 nM.

`O=C(Nc1cc(CCCOc2cc(NC(=O)c3ccc(-n4ccnc4)nn3)c(C(=O)O)cc2F)c(F)cc1C(=O)O)c1ccc(-n2ccnc2)nn1` [US20230357253, Compound 125]: the IC50 was under 10 nM. As for `O=C(Nc1cc(OCCCOc2ccc(C(=O)O)c(NC(=O)c3ccc4nnnn4n3)c2)ccc1C(=O)O)c1ccc2nnnn2n1` [US20230357253, Compound 28], the IC50 was over 1000 nM. Compound `O=C(Nc1cc(CCCc2cc(NC(=O)c3ccc(-n4ccnc4)nn3)c(C(=O)O)cc2F)c(F)cc1C(=O)O)c1ccc(N2CCOCC2)nn1` [US20230357253, Compound 212] yielded an IC50 of over 1000 nM. `O=C(Nc1cc(CC[S+]([O-])c2cc(NC(=O)c3ccc(-n4ccnc4)nn3)c(C(=O)O)cc2F)c(F)cc1C(=O)O)c1ccc(-n2ccnc2)nn1` (centres undefined) [US20230357253, Compound 200] returned an IC50 of over 1000 nM. Turning to `O=C(Nc1cc(CCc2cc(C(=O)O)c(NC(=O)c3ccc(-n4ccnc4)nn3)cc2F)c(F)cc1C(=O)O)c1ccc(-n2ccnc2)nn1` [US20230357253, Compound 180], the concentration for half-maximal inhibition (IC50) was over 1000 nM. Take `O=C(O)Cc1cc(F)c(CCOc2cc(NC(=O)c3ccc(-n4ccnc4)nn3)c(C(=O)O)cc2F)cc1NC(=O)c1ccc(-n2ccnc2)nn1` [US20230357253, Compound 133]: the IC50 was over 1000 nM. Compound `COc1cc(C(=O)O)c(NC(=O)c2ccc(-n3ccnc3)nn2)cc1CCCc1cc(NC(=O)c2ccc(-n3ccnc3)nn2)c(C(=O)O)cc1F` [US20230357253, Compound 59] gave an IC50 of under 10 nM.

With `O=C(Nc1cc(CCCc2ccc(C(=O)O)c(NC(=O)c3ccc4nnnn4n3)c2)ccc1C(=O)O)c1ccc(-n2ccnc2)nn1` [US20230357253, Compound 63], the IC50 was over 1000 nM. With `COc1cc(C(=O)O)c(NC(=O)c2ccc(-n3ccnc3)nn2)cc1OCCc1cc(C(=O)O)c(NC(=O)c2ccc(-n3ccnc3)nn2)cc1C#N` [US20230357253, Compound 130], the IC50 was under 10 nM.

As to `O=C(Nc1cc(OCCc2cc(C(=O)O)c(NC(=O)c3ccc(-n4ccnc4)nn3)cc2Cl)c(F)cc1C(=O)O)c1ccc(-n2ccnc2)nn1` [US20230357253, Compound 166], the IC50 is under 10 nM.

In turn, `O=C(Nc1cc(CCOc2cc(C(=O)O)c(NC(=O)c3ccc(-n4ccnc4)nn3)cc2F)c(F)cc1C(=O)O)c1ccc(-n2ccnc2)nn1` [US20230357253, Compound 141] gave an IC50 of under 10 nM. In turn, `O=C(Nc1cc(OCCCOc2cc(C(=O)O)c(NC(=O)c3ccc4nnnn4n3)cc2F)c(F)cc1C(=O)O)c1ccc2nnnn2n1` [US20230357253, Compound 33] yielded an IC50 of over 1000 nM. `Cn1nccc1-c1ccc(C(=O)Nc2cc(OCCCOc3cc(NC(=O)c4ccc(-c5ccnn5C)nn4)c(C(=O)O)cc3F)c(F)cc2C(=O)O)nn1` [US20230357253, Compound 206] gave an IC50 of over 1000 nM.

`O=C(Nc1cc(CSCc2cc(NC(=O)c3ccc(-n4ccnc4)nn3)c(C(=O)O)cc2F)c(F)cc1C(=O)O)c1ccc(-n2ccnc2)nn1` [US20230357253, Compound 132] came in with an IC50 of under 10 nM. As to `O=C(Nc1cc(CCCc2cc(NC(=O)c3ccc(-n4ccnc4)nn3)c(C(=O)O)cc2F)c(F)cc1C(=O)O)c1ccc(-n2ccnc2)nn1` [US20230357253, Compound 3], the IC50 is under 10 nM. `O=C(Nc1cc(CCCc2ccc(C(=O)O)c(NC(=O)c3ccc4nnnn4n3)c2)ccc1C(=O)O)c1ccc2nnnn2n1` [US20230357253, Compound 14] came in with an IC50 of over 1000 nM.

Compound `O=C(Nc1c(C(=O)O)cc(F)c(OCCCCOc2c(F)cc(C(=O)O)c(NC(=O)c3ccc(-n4ccnc4)nn3)c2F)c1F)c1ccc(-n2ccnc2)nn1` [US20230357253, Compound 38] displayed an IC50 of over 1000 nM.

Regarding `O=C(Nc1cc(OCCc2c(F)cc(NC(=O)c3ccc(-n4ccnc4)nn3)c(C(=O)O)c2F)c(F)cc1C(=O)O)c1ccc(-n2ccnc2)nn1` [US20230357253, Compound 177], the IC50 is under 10 nM. `O=C(Nc1cc(OCCCOc2cc(NC(=O)c3ccc(-n4ccnc4)nn3)c(C(=O)O)cc2F)c(F)cc1C(=O)O)c1ccc(-n2ccnc2)nn1` [US20230357253, Compound 168] returned an IC50 of under 10 nM. The compound `O=C(Nc1cc(OCCc2cc(C(=O)O)c(NC(=O)c3ccc4nnnn4n3)cc2F)c(F)cc1C(=O)O)c1ccc(-n2ccnc2)nn1` [US20230357253, Compound 169] returned an IC50 of under 10 nM.

`O=C(Nc1cc(CCOc2cc(NC(=O)c3ccc(-n4ccnc4)nn3)c(C(=O)O)cc2F)c(F)cc1C(=O)O)c1ccc(-c2cn[nH]c2)nn1` [US20230357253, Compound 205] yielded an IC50 of under 10 nM.

Consider `O=C(Nc1cc(CCCc2cc(C(=O)O)c(NC(=O)c3ccc(-n4ccnc4)nn3)cc2F)c(F)cc1C(=O)O)c1ccc(-n2ccnc2)nn1` [US20230357253, Compound 70], for which the IC50 is under 10 nM.

Compound `O=C(Nc1cc(F)c(CCCc2cc(NC(=O)c3ccc4nnnn4n3)c(C(=O)O)cc2F)cc1C(=O)O)c1ccc(-n2ccnc2)nn1` [US20230357253, Compound 94] gave an IC50 of under 10 nM. `COc1nc(C(=O)O)c(NC(=O)c2ccc(-n3ccnc3)nn2)cc1CCCc1cc(NC(=O)c2ccc(-n3ccnc3)nn2)c(C(=O)O)cc1F` [US20230357253, Compound 134]: the IC50 was under 10 nM. On to `O=C(Nc1cc(CCCc2cc(NC(=O)c3ccc4nnnn4n3)c(C(=O)O)cc2F)c(F)cc1C(=O)O)c1ccc(-n2ccnc2)nn1` [US20230357253, Compound 67], for which the IC50 is under 10 nM. Turning to `O=C(Nc1cc(OCCc2cc(C(=O)O)c(NC(=O)c3ccc(-c4cn[nH]c4)nn3)cc2F)c(F)cc1C(=O)O)c1ccc(-c2cn[nH]c2)nn1` [US20230357253, Compound 204], the IC50 was under 10 nM. As to `COc1cc(C(=O)O)c(NC(=O)c2ccc(-n3ccnc3)nn2)cc1CCCc1ccc(C(=O)O)c(NC(=O)c2ccc(-n3ccnc3)nn2)c1` [US20230357253, Compound 56], the IC50 was under 10 nM. In turn, `Cn1nccc1-c1ccc(C(=O)Nc2cc(CCCc3cc(NC(=O)c4ccc(-n5ccnc5)nn4)c(C(=O)O)cc3F)c(F)cc2C(=O)O)nn1` [US20230357253, Compound 207] registered an IC50 of over 1000 nM.

Consider `O=C(Nc1cc(CCc2ccc(C(=O)O)c(NC(=O)c3ccc4nnnn4n3)c2)ccc1C(=O)O)c1ccc2nnnn2n1` [US20230357253, Compound 29], for which the IC50 is over 1000 nM. The result for `O=C(Nc1cc(CCCc2cc(NC(=O)c3ccc(-n4ccnc4)nn3)c(C(=O)O)cc2F)ccc1C(=O)O)c1ccc(-n2ccnc2)nn1` [US20230357253, Compound 68] reads under 10 nM; that for `COc1cc(C(=O)O)c(NC(=O)c2ccc(-n3ccnc3)nn2)cc1OCCCCOc1cc(NC(=O)c2ccc(-n3ccnc3)nn2)c(C(=O)O)cc1OC` [US20230357253, Compound 21], over 1000 nM. `O=C(Nc1cc(CCCc2cc(NC(=O)c3ccc(-n4ccnc4)nn3)c(C(=O)O)s2)c(F)cc1C(=O)O)c1ccc(-n2ccnc2)nn1` [US20230357253, Compound 164] displayed a concentration for half-maximal inhibition (IC50) of under 10 nM.

Turning to `CC(Cc1cc(NC(=O)c2ccc(-n3ccnc3)nn2)c(C(=O)O)cc1F)Cc1cc(NC(=O)c2ccc(-n3ccnc3)nn2)c(C(=O)O)cc1F` [US20230357253, Compound 194], the IC50 is under 10 nM.
